Values after ≈ are worked out from the molar mass of the structure shown.
Experiments:
Type in all cases: functional, cell-based
HepG2 = test: Cytotoxicity against human HepG2 cells by MTT assay
MCF7 = test: Cytotoxicity against human MCF7 cells by MTT assay
A549 = test: Cytotoxicity against human A549 cells by MTT assay
MDA-MB-231 = test: Cytotoxicity against human MDA-MB-231 cells by MTT assay

Structure (SMILES)	IC50 (HepG2)	IC50 (MCF7)	IC50 (A549)	IC50 (MDA-MB-231)
CC(C)C(C)CC[C@@H](C)[C@H]1CC[C@@H]([C@@H]2CC=C3C[C@@H](O)CC[C@]3(C)C2=O)[C@]1(C)CCO (stereo not given in full)	14.1 µg/mL (≈ 32.6 µM)	15.7 µg/mL (≈ 36.3 µM)	16.8 µg/mL (≈ 38.8 µM)	15 µg/mL (≈ 34.7 µM)
C=C(CC[C@@H](C)[C@H]1CC[C@@H]([C@@H]2CC=C3C[C@@H](O)CC[C@]3(C)C2=O)[C@]1(C)CCO)C(C)C	9.1 µg/mL (≈ 21.1 µM)	4.5 µg/mL (≈ 10.4 µM)	9.1 µg/mL (≈ 21.1 µM)	9.9 µg/mL (≈ 23 µM)
COc1cccc2c1C(=O)c1c(O)c3c(c(O)c1C2=O)C[C@@](O)(C(=O)CO)C[C@@H]3O[C@H]1C[C@H](N)[C@H](O)[C@H](C)O1 [DOXORUBICIN]	0.3 µg/mL (≈ 0.552 µM)	0.4 µg/mL (≈ 0.736 µM)	0.4 µg/mL (≈ 0.736 µM)	
C=C(CC[C@@H](C)[C@H]1CC[C@@H]([C@@H]2CC[C@H]3C[C@@H](O)CC[C@]3(C)C2=O)[C@]1(C)CCO)C(C)C	8.2 µg/mL (≈ 19 µM)	9.2 µg/mL (≈ 21.3 µM)	9.8 µg/mL (≈ 22.6 µM)	11.3 µg/mL (≈ 26.1 µM)

— ChEMBL document CHEMBL1157957, “9,11-Secosterols from the soft corals Sinularia lochmodes and Sinularia leptoclados” (J Nat Prod, 2006)
